Data published in PubChem BioAssay AID330 (DTP/NCI, 2004).
Several values for one entry are separate records, joined by “and”; a condition that tells them apart may be missing. Equal entries are not always repeated. Inconclusive results and toxic doses are left out. Rule for the calls: active = survival T/C of 150% or more; inactive = T/C below 125% in these data.

Tested on: P388 leukemia ip, CD2F1 mice, survival T/C
Experiment: NCI In Vivo Anticancer Drug Screen. Data for tumor model P388 Leukemia (intraperitoneal) in CD2F1 (CDF1) mice
Conditions: endpoint: median survival time, higher = longer survival
Method in brief: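 Mice carrying the transplanted tumor received test compound or vehicle. Survival was recorded in each group, and the value is the treated-group measurement divided by that of the vehicle-treated control group.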

[1] = dose: 50.0 mg/kg/injection, schedule: Q01DX009 (ip), vehicle: saline with Tween-80
[2] = dose: 50.0 mg/kg/injection, schedule: Q01DX009 (ip), vehicle: saline
[3] = dose: 100.0 mg/kg/injection, schedule: Q01DX009 (ip), vehicle: saline with Tween-80
[4] = dose: 200.0 mg/kg/injection, schedule: Q01DX009 (ip), vehicle: saline with Tween-80
[5] = dose: 100.0 mg/kg/injection, schedule: Q01DX001 (ip), vehicle: Klucel (hydroxypropylcellulose) (HPC)
[6] = dose: 200.0 mg/kg/injection, schedule: Q01DX001 (ip), vehicle: Klucel (hydroxypropylcellulose) (HPC)
[7] = dose: 400.0 mg/kg/injection, schedule: Q01DX001 (ip), vehicle: Klucel (hydroxypropylcellulose) (HPC)
[8] = dose: 12.5 mg/kg/injection, schedule: Q01DX005 (ip), vehicle: Klucel (hydroxypropylcellulose) (HPC)
[9] = dose: 25.0 mg/kg/injection, schedule: Q01DX005 (ip), vehicle: Klucel (hydroxypropylcellulose) (HPC)
[10] = dose: 50.0 mg/kg/injection, schedule: Q01DX005 (ip), vehicle: Klucel (hydroxypropylcellulose) (HPC)
[11] = dose: 100.0 mg/kg/injection, schedule: Q04DX002 (ip), vehicle: saline
[12] = dose: 200.0 mg/kg/injection, schedule: Q04DX002 (ip), vehicle: saline
[13] = dose: 400.0 mg/kg/injection, schedule: Q04DX002 (ip), vehicle: saline
[14] = dose: 25.0 mg/kg/injection, schedule: Q01DX009 (ip), vehicle: other
[15] = dose: 50.0 mg/kg/injection, schedule: Q01DX009 (ip), vehicle: other
[16] = dose: 100.0 mg/kg/injection, schedule: Q01DX009 (ip), vehicle: other
[17] = dose: 200.0 mg/kg/injection, schedule: Q01DX009 (ip), vehicle: other

Measured: T/C

CC1=CC(OC2CCCCC2)OC1=O (stereo not given)
inactive: dose: 47.5 mg/kg/injection, schedule: Q01DX005 (ip), vehicle: Klucel (hydroxypropylcellulose) (HPC) 104 % of control | dose: 95.0 mg/kg/injection, schedule: Q01DX005 (ip), vehicle: Klucel (hydroxypropylcellulose) (HPC) 101 % of control | dose: 190.0 mg/kg/injection, schedule: Q01DX005 (ip), vehicle: Klucel (hydroxypropylcellulose) (HPC) 104 % of control

Cc1c(C(=O)O)nc(C(Br)(Br)Br)[nH]c1=O
inactive: dose: 12.5 mg/kg/injection, schedule: Q01DX009 (ip), vehicle: distilled water + Tween-80 94 % of control | dose: 25.0 mg/kg/injection, schedule: Q01DX009 (ip), vehicle: distilled water + Tween-80 118 % of control | dose: 50.0 mg/kg/injection, schedule: Q01DX009 (ip), vehicle: distilled water + Tween-80 118 % of control | dose: 100.0 mg/kg/injection, schedule: Q01DX009 (ip), vehicle: distilled water + Tween-80 107 % of control | dose: 200.0 mg/kg/injection, schedule: Q01DX009 (ip), vehicle: distilled water + Tween-80 107 % of control

COc1ccccc1C1C2CCCC(C2=O)C(c2ccccc2OC)N1C (stereo not given)
inactive: dose: 100.0 mg/kg/injection, schedule: Q04DX003 (ip), vehicle: saline 98 % of control | dose: 200.0 mg/kg/injection, schedule: Q04DX003 (ip), vehicle: saline 99 % of control | dose: 400.0 mg/kg/injection, schedule: Q04DX003 (ip), vehicle: saline 99 % of control

COc1ccc(C(CC(=O)O)CC(=O)c2ccc(N(CCCl)CCCl)cc2)cc1 (stereo not given)
inactive: dose: 100.0 mg/kg/injection, schedule: Q01DX001 (ip), vehicle: suspension in saline 98 % of control | dose: 200.0 mg/kg/injection, schedule: Q01DX001 (ip), vehicle: suspension in saline 99 % of control

Cc1c2c(C(N)=O)nccc2c(C)c2c1c1ccccc1n2Cc1ccccc1
inactive: dose: 1.56 mg/kg/injection, schedule: Q04DX003 (ip), vehicle: distilled water + Tween-80 89 % of control | dose: 3.13 mg/kg/injection, schedule: Q04DX003 (ip), vehicle: distilled water + Tween-80 89 % of control | dose: 12.5 mg/kg/injection, schedule: Q04DX003 (ip), vehicle: distilled water + Tween-80 86 % of control | dose: 25.0 mg/kg/injection, schedule: Q04DX003 (ip), vehicle: distilled water + Tween-80 87 % of control | dose: 50.0 mg/kg/injection, schedule: Q04DX003 (ip), vehicle: distilled water + Tween-80 100 % of control | dose: 100.0 mg/kg/injection, schedule: Q04DX003 (ip), vehicle: distilled water + Tween-80 95 % of control | dose: 200.0 mg/kg/injection, schedule: Q04DX003 (ip), vehicle: distilled water + Tween-80 101 % of control

Cc1ccc(S(=O)(=O)/N=[Se](\C)c2ccccc2)cc1 (stereo not given)
inactive: dose: 0.79 mg/kg/injection, schedule: Q01DX009 (ip), vehicle: saline 95 % of control | dose: 1.56 mg/kg/injection, schedule: Q01DX009 (ip), vehicle: saline 97 % of control | dose: 3.12 mg/kg/injection, schedule: Q01DX009 (ip), vehicle: saline 93 % of control and 97 % of control | dose: 12.5 mg/kg/injection, schedule: Q01DX009 (ip), vehicle: saline with Tween-80 96 % of control | dose: 25.0 mg/kg/injection, schedule: Q01DX009 (ip), vehicle: saline with Tween-80 96 % of control | [1] 108 % of control | [2] 114 % of control

COC(=S)c1ccc(C(=S)OC)cc1
inactive: [1] 99 % of control | [3] 105 % of control | [4] 103 % of control

O=C(NC1CCCCC1)C(=NC1CCCCC1)c1cc(Cl)c(Cl)c(Cl)c1Cl
inactive: dose: 50.0 mg/kg/injection, schedule: Q04DX003 (ip), vehicle: saline with Tween-80 98 % of control | dose: 100.0 mg/kg/injection, schedule: Q04DX003 (ip), vehicle: saline with Tween-80 98 % of control | dose: 200.0 mg/kg/injection, schedule: Q04DX003 (ip), vehicle: saline with Tween-80 87 % of control

COc1c2cc(O)cc1CCCC1=CC(=O)C=C(CCC2)C1=O
inactive: [5] 99 % of control | [6] 99 % of control | [7] 108 % of control

CCOc1ccc(C(/C(Cl)=N/O)C(Cl)(Cl)Cl)cc1 (stereo not given)
inactive: [8] 96 % of control | [9] 91 % of control | [10] 100 % of control

O=C(NN(Cn1c(=S)sc2ccccc21)Cn1c(=S)sc2ccccc21)c1cccc([N+](=O)[O-])c1
inactive: [5] 93 % of control | [6] 92 % of control | [7] 113 % of control

O=C1CC2CCCCC2CC1c1ccccc1 (stereo not given)
inactive: dose: 50.0 mg/kg/injection, schedule: Q01DX009 (ip), vehicle: Klucel (hydroxypropylcellulose) (HPC) 104 % of control | dose: 100.0 mg/kg/injection, schedule: Q01DX009 (ip), vehicle: Klucel (hydroxypropylcellulose) (HPC) 88 % of control | dose: 200.0 mg/kg/injection, schedule: Q01DX009 (ip), vehicle: Klucel (hydroxypropylcellulose) (HPC) 95 % of control

Oc1ccccc1C1=NC(c2ccccc2)NC(c2ccccc2)C1 (stereo not given)
inactive: [1] 88 % of control | [3] 93 % of control

C=C1CC2(CCCCC2C(C)(C)C)OC1=O (stereo not given)
inactive: [11] 100 % of control | [12] 99 % of control | [13] 99 % of control

CCOC(=O)NNCC(=O)OCc1ccccc1
inactive: [14] 90 % of control | [15] 93 % of control | [16] 100 % of control | [17] 109 % of control

[Cl][Pt+2]([Cl])([Cl])[Cl].[Na+].[S-]c1ncnc2nc[nH]c12.[S-]c1ncnc2nc[nH]c12
inactive: dose: 132.0 mg/kg/injection, schedule: Q01DX009 (ip), vehicle: saline with Tween-80 100 % of control | [4] 109 % of control

CCOC(=O)/C=C1\COc2nc(N)[nH]c(=O)c2N1
inactive: [8] 93 % of control | [9] 91 % of control | [10] 89 % of control | dose: 100.0 mg/kg/injection, schedule: Q01DX005 (ip), vehicle: Klucel (hydroxypropylcellulose) (HPC) 94 % of control | dose: 200.0 mg/kg/injection, schedule: Q01DX005 (ip), vehicle: Klucel (hydroxypropylcellulose) (HPC) 91 % of control

COc1cc2c(cc1OC)C(C)P(C)(=O)CC2O (stereo not given)
inactive: dose: 100.0 mg/kg/injection, schedule: Q04DX002 (ip), vehicle: saline with Tween-80 100 % of control | [11] 109 % of control | dose: 200.0 mg/kg/injection, schedule: Q04DX002 (ip), vehicle: saline with Tween-80 107 % of control | [12] 98 % of control | dose: 400.0 mg/kg/injection, schedule: Q04DX002 (ip), vehicle: saline with Tween-80 100 % of control | [13] 98 % of control

O=c1cnc(=O)[nH][nH]1
inactive: dose: 60.0 mg/kg/injection, schedule: Q01DX005 (ip), vehicle: saline with Tween-80 103 % of control | dose: 120.0 mg/kg/injection, schedule: Q01DX005 (ip), vehicle: saline with Tween-80 91 % of control | dose: 240.0 mg/kg/injection, schedule: Q01DX005 (ip), vehicle: saline with Tween-80 93 % of control

CCCCCCCCCCCCc1ccc(C[N+](C)(C)CC[N+](C)(C)Cc2ccc(CCCCCCCCCCCC)cc2)cc1
inactive: [2] 104 % of control

COc1ccc(S(=O)(=O)NN)cc1
inactive: [14] 106 % of control | [15] 103 % of control | [16] 104 % of control | [17] 106 % of control
